± gives the standard deviation of the averaged measurements.
Tests used:
Settings in all cases: 72 h
U2OS [1] = test: drug sensitivity score (DSS) for viability; higher = more toxic; extreme values may be limits of the assay
Caco-2 [2] = test: as above
Vero E6 [3] = test: as above
Calu-3 [4] = test: as above
HepG2 [5] = test: as above
U2OS [6] = test: relative viability EC50 (midpoint between 100% and the lowest measured viability); higher = less toxic
Caco-2 [7] = test: as above
Vero E6 [8] = test: as above
Calu-3 [9] = test: as above
HepG2 [10] = test: as above
U2OS [11] = test: cell viability relative to DMSO; higher = less toxic
Caco-2 [12] = test: as above
Vero E6 [13] = test: as above
Calu-3 [14] = test: as above
HepG2 [15] = test: as above

| Compound | drug sensitivity score (U2OS [1]) | drug sensitivity score (Caco-2 [2]) | drug sensitivity score (Vero E6 [3]) | drug sensitivity score (Calu-3 [4]) | drug sensitivity score (HepG2 [5]) | relative viability EC50 (U2OS [6]) [µM] | relative viability EC50 (Caco-2 [7]) [µM] | relative viability EC50 (Vero E6 [8]) [µM] | relative viability EC50 (Calu-3 [9]) [µM] | relative viability EC50 (HepG2 [10]) [µM] | cell viability (U2OS [11]; 1 nM) [%] | cell viability (U2OS [11]; 10 nM) [%] | cell viability (U2OS [11]; 100 nM) [%] | cell viability (U2OS [11]; 1000 nM) [%] | cell viability (U2OS [11]; 10000 nM) [%] | cell viability (Caco-2 [12]; 1 nM) [%] | cell viability (Caco-2 [12]; 10 nM) [%] | cell viability (Caco-2 [12]; 100 nM) [%] | cell viability (Caco-2 [12]; 1000 nM) [%] | cell viability (Caco-2 [12]; 10000 nM) [%] | cell viability (Vero E6 [13]; 1 nM) [%] | cell viability (Vero E6 [13]; 10 nM) [%] | cell viability (Vero E6 [13]; 100 nM) [%] | cell viability (Vero E6 [13]; 1000 nM) [%] | cell viability (Vero E6 [13]; 10000 nM) [%] | cell viability (Calu-3 [14]; 1 nM) [%] | cell viability (Calu-3 [14]; 10 nM) [%] | cell viability (Calu-3 [14]; 100 nM) [%] | cell viability (Calu-3 [14]; 1000 nM) [%] | cell viability (Calu-3 [14]; 10000 nM) [%] | cell viability (HepG2 [15]; 1 nM) [%] | cell viability (HepG2 [15]; 10 nM) [%] | cell viability (HepG2 [15]; 100 nM) [%] | cell viability (HepG2 [15]; 1000 nM) [%] | cell viability (HepG2 [15]; 10000 nM) [%] |
| --- | --- | --- | --- | --- | --- | --- | --- | --- | --- | --- | --- | --- | --- | --- | --- | --- | --- | --- | --- | --- | --- | --- | --- | --- | --- | --- | --- | --- | --- | --- | --- | --- | --- | --- | --- |
| CC(C)(C(=O)O)c1ccc(C(=O)CCCN2CCC(OC(c3ccccc3)c3ccccc3)CC2)cc1 [carebastine] | 0 | 0 | 0 | 0 | 0 | > 10 | > 10 | > 10 | > 10 | > 10 | 95.7 | 99.2 | 99.4 | 93.2 | 99.3 | 101 | 101 | 107 | 92.2 | 96.6 | 111 | 106 | 95.3 | 104 | 106 | 89.7 | 88.6 | 110 | 100 | 102 | 107 | 97.7 | 94.3 | 108 | 92.9 |
| CN(C)C(=O)N[C@H]1CC[C@H](CCN2CCN(c3cccc(Cl)c3Cl)CC2)CC1 [cariprazine] | 0 | 0 | 0 | 0 | 0 | > 10 | > 10 | > 10 | > 10 | > 10 | 100 | 102 | 98 | 95.9 | 100 | 95.7 | 95.2 | 96.5 | 86.6 | 97.2 | 97.3 | 98.6 | 96.8 | 104 | 95.3 | 102 | 93 | 100 | 97.9 | 106 | 93 | 91.1 | 93.8 | 100 | 94.7 |
| CC1=C(C(=O)O)N2C(=O)[C@@H](NC(=O)[C@H](N)C3=CCC=CC3)[C@H]2SC1 [cephradine] | 0 | 0 | 0 | 0.15 ± 0.21 | 0 | > 10 | > 10 | > 10 | > 10 | > 10 | 96.4 ± 0.99 | 99.7 ± 2.4 | 100 ± 3.5 | 103.8 ± 0.78 | 101.7 ± 0.78 | 96.75 ± 0.92 | 100 ± 9.7 | 94.8 ± 0.85 | 98 ± 3.8 | 103 ± 14 | 95.2 ± 3 | 97 ± 3.8 | 94.5 ± 3 | 98.4 ± 4.1 | 99.2 ± 1.1 | 92.7 ± 0.85 | 98.1 ± 5.7 | 98.3 ± 2 | 106 ± 9.1 | 89.2 ± 6 | 99.9 ± 3.4 | 94.2 ± 3.5 | 98 ± 7.6 | 102 ± 10 | 108 ± 3.1 |
| CCCCCCCCCCCCCCCC[N+](C)(C)C [cetrimonium] | 7.3 | 6.8 | 6.3 | 5.5 | 5 | 1.83 | 1.9 | 1.91 | 1.44 | 2.43 | 99 | 95 | 97.5 | 84.6 | 14.3 | 92.7 | 95.9 | 96.3 | 86.6 | 18.5 | 96.5 | 93.5 | 97.7 | 87.5 | 23.8 | 97.7 | 97.8 | 109 | 83.6 | 43.1 | 97.9 | 93.2 | 96.5 | 93.6 | 28 |
| C[N+](C)(C)CC[N+]1(C)Cc2c(Cl)c(Cl)c(Cl)c(Cl)c2C1 [chlorisondamine-diiodide] | 0 | 0 | 0 | 0 | 0 | > 10 | > 10 | > 10 | > 10 | > 10 | 97.2 | 96.2 | 96.1 | 97.5 | 92.5 | 92.1 | 93 | 99.9 | 103 | 88.8 | 100 | 95.5 | 95.7 | 97.4 | 94 | 93.2 | 102 | 102 | 89.8 | 100 | 94 | 110 | 103 | 99.9 | 101 |
| Cc1cc(O)ccc1Cl [chlorocresol] | 0 | 0 | 0 | 0 | 0 | > 10 | > 10 | > 10 | > 10 | > 10 | 105 | 99.6 | 103 | 97.8 | 100 | 109 | 104 | 100 | 97.4 | 95.1 | 96.2 | 103 | 100 | 111 | 99.4 | 99.8 | 92.3 | 96.3 | 105 | 101 | 100 | 100 | 99 | 103 | 102 |
| O=C(O)/C=C\c1c[nH]cn1 [cis-Urocanic acid] | 0 | 1.25 ± 1.8 | 0 | 0 | 0 | > 10 | > 10 | > 10 | > 10 | > 10 | 99.2 ± 3 | 97.5 ± 2.8 | 97.7 ± 1.1 | 97.4 ± 4 | 100 ± 1.8 | 93.8 ± 14 | 96.7 ± 3.2 | 92.3 ± 7.2 | 91.5 ± 8.9 | 98.1 ± 5.9 | 99.5 ± 3.1 | 99.8 | 100 ± 4.2 | 100.8 ± 0.64 | 99 ± 1.8 | 107 ± 4.3 | 108 ± 11 | 100 ± 4.8 | 98 ± 8.6 | 96.6 ± 3 | 97.1 | 95.9 | 88.1 | 102 | 95.2 |
| N=C(NCc1ccc(Cl)cc1)SCCCc1c[nH]cn1 [clobenpropit] | 0 | 0 | 0 | 0.3 | 0.2 | > 10 | > 10 | > 10 | > 10 | > 10 | 110 | 104 | 99.5 | 98.3 | 99.6 | 97.5 | 96.2 | 101 | 93.5 | 104 | 101 | 100 | 97.4 | 93.3 | 97.5 | 108 | 100 | 103 | 101 | 82.4 | 94.2 | 106 | 105 | 102 | 84 |
| CC(=O)c1c(O)cc(C)oc1=O [dehydroacetic-acid] | 0 | 0 | 0 | 0 | 0 | > 10 | > 10 | > 10 | > 10 | > 10 | 99.2 | 101 | 96.2 | 103 | 100 | 101 | 107 | 91.9 | 104 | 94.9 | 98 | 93.6 | 92.5 | 101 | 95.4 | 105 | 107 | 98.2 | 101 | 101 | 100 | 103 | 99.9 | 96.7 | 103 |
| CNCC(O)c1ccc(OC(=O)C(C)(C)C)c(OC(=O)C(C)(C)C)c1 (stereo not given) [dipivefrine] | 0 | 0.9 | 0 | 0 | 0.5 | > 10 | > 10 | > 10 | > 10 | > 10 | 99.4 | 95.1 | 97.3 | 96.2 | 97.1 | 104 | 94 | 102 | 90.4 | 85 | 100 | 100 | 93.3 | 98.3 | 97.4 | 97.9 | 102 | 106 | 96.3 | 109 | 97.5 | 94.1 | 98.2 | 97.7 | 84.3 |
| CN(CCOc1ccc(NS(C)(=O)=O)cc1)CCc1ccc(NS(C)(=O)=O)cc1 [dofetilide] | 0 | 0 | 0 | 0 | 0 | > 10 | > 10 | > 10 | > 10 | > 10 | 100 | 102 | 102 | 96.6 | 97 | 91.1 | 99.9 | 99.1 | 97.1 | 102 | 92.6 | 104 | 90.2 | 98.1 | 110 | 111 | 90.4 | 101 | 98.6 | 104 | 100 | 102 | 89.5 | 117 | 118 |
| NCCc1ccc(O)c(O)c1 [dopamine] | 0 | 0 | 0 | 0 | 0 | > 10 | > 10 | > 10 | > 10 | > 10 | 101 | 96.6 | 101 | 100 | 100 | 106 | 97.7 | 92.5 | 91.1 | 89.9 | 103 | 106 | 102 | 97 | 99.4 | 100 | 100 | 100 | 99.8 | 109 | 106 | 107 | 95.1 | 115 | 99.6 |
| CC(C)(O)CNc1nc(Nc2ccnc(C(F)(F)F)c2)nc(-c2cccc(C(F)(F)F)n2)n1 [enasidenib] | 0 | 0.5 | 0 | 0.5 | 0 | > 10 | > 10 | > 10 | > 10 | > 10 | 101 | 104 | 99.9 | 104 | 92 | 94.5 | 115 | 107 | 102 | 79.3 | 98.2 | 94.2 | 97.9 | 99.6 | 101 | 96 | 106 | 103 | 87.8 | 92.7 | 106 | 96.9 | 110 | 106 | 91.7 |
